Results reported in patent US20240245711A1, “A 19-NOR C3,3-DISUBSTITUTED C21-N-PYRAZOLYL STEROID FOR THE TREATMENT OF MAJOR DEPRESSIVE DISORDER” (Sage Therapeutics, Inc., priority 2021, published 2024).

System: adult subjects with Major Depressive Disorder
Assay: Phase 3 open-label 1-year study: HAM-D total score, response and remission
Format: in vivo, human
From the text: Secondary Objective: To assess the need for re-treatment with Compound (1) following initial treatment in adults with MDD currently experiencing an MDE over a 1-year period, and to assess the response of initial treatment and re-treatment(s) with Compound (1) following an initial 2-week treatment period in adults with MDD currently experiencing an MDE over a 1-year period.
Secondary Endpoints: The need for re-treatment with Compound (1) as assessed by: time to first re-treatment (Kaplan-Meier curves), number of subjects achieving the requirements for re-treatment, number of re-treatment cycles for each subject, the response of initial treatment and/or re-treatment as assessed by: change from baseline in the 17-item Hamilton Rating Scale for Depression (HAM-D) total score at the end of each 14-day treatment (initial and/or re-treatment) period, HAM-D response at the end of each 14-day treatment (initial and/or re-treatment) period, defined as a ≥50% reduction in HAM-D score from baseline, HAM-D remission at the end of each 14-day treatment (initial and/or re-treatment) period, defined as HAM-D total score≤7, Clinical Global Impression-Improvement (CGI-I) response, defined as “much improved” or “very much improved”, at the end of each 14-day treatment (initial and/or re-treatment) period, change from baseline in Clinical Global Impression-Severity (CGI-S) score at the end of each 14-day treatment (initial and/or re-treatment) period.
Study Population: Subjects were 18-75 years old, diagnosed with major depressive disorder (MDD) with a MADRS total score of ≥28 and a HAM-D total score of ≥20 at Screening and Day 1 (prior to dosing).
Treatment Groups: The 30 mg and 50 mg dose groups were separated by time of enrollment. The study is comprised of two cohorts: one with Compound (1) 30 mg as a starting dose (30 mg Cohort: n=725), an initial cohort with Compound (1) 50 mg as a starting dose (50 mg Cohort: n=199). A patient receiving Compound (1) 30 mg could be dose reduced to 20 mg and patients receiving Compound (1) 50 mg could be dose reduced to 40 mg (based on tolerability). In all cohorts, Compound (1) is self-administered by patients as an oral therapy once nightly with food for 14 days.
Eligible subjects were given Compound (1)—to be taken at home in the evening with meal.
The cohorts pertaining to the different doses that the subjects received were defined as following: • 50 mg cohort: This cohort includes subjects who have initiated treatment with 50 mg and received re-treatment with 50 mg only. • 30 mg cohort: This cohort includes subjects who have initiated treatment with 30 mg regardless of the dose they have received in re-treatments. • Low dose cohort: This cohort includes subjects who have initiated treatment with 30 mg and received re-treatment with 30 mg only. • Dose switch cohort: This cohort includes subjects who have received initial treatment with 30 mg and at least one subsequent re-treatment with 50 mg. • Study Period X: starts on the date of the first dose of Compound (1) in cycle X and goes up to one day prior to the first dose of the next cycle. In some embodiments, X is any number from 1 to 5. • Treatment Period X: starts on the date of the first dose of Compound (1) in cycle X and goes up to one day after the last dose in cycle X. In some embodiments, X is any number from 1 to 5. • Treatment Cycle X: starts on the date of the first dose of Compound (1) in cycle X and goes up to 14 days after the last dose in cycle X. The treatment cycles may be denoted as C1-C5. • Observation period X: starts the day after Treatment Cycle X ends and goes up to one day prior to the start of next treatment cycle. In some embodiments, X is any number from 1 to 5.
Analysis Sets: The safety set was defined as all subjects who were administered study drug. The period-specific safety set includes subjects in the safety set who were administered study drug in the corresponding treatment cycle. […]

[1] = Day 15 of first treatment cycle, overall study population
[2] = Dose Switch Cohort (FAS), first dose in cycle 30 mg, Cycle 2, Day 15
[3] = Dose Switch Cohort (FAS), first dose in cycle 30 mg, Cycle 3, Day 15
[4] = Dose Switch Cohort (FAS), first dose in cycle 30 mg, Cycle 4, Day 15
[5] = Low Dose Cohort (FAS), of Non-responders at D15 in C3 (N = 33)
[6] = Low Dose Cohort (FAS), of Non-responders at D15 in C4 (N = 18)
[7] = Low Dose Cohort (FAS), of Non-responders at D15 in C5 (N = 7)
[8] = Low Dose Cohort (FAS), subjects dosed in Cycle 2 (199), Cycle 1, Day 15
[9] = Low Dose Cohort (FAS), subjects dosed in Cycle 2 (199), Cycle 1, Day 28
[10] = Low Dose Cohort (FAS), subjects dosed in Cycle 2 (199), Cycle 2, Day 15
[11] = Low Dose Cohort (FAS), subjects dosed in Cycle 2 (199), Cycle 2, Day 28
[12] = Low Dose Cohort (FAS), subjects dosed in Cycle 3 (83), Cycle 1, Day 15
[13] = Low Dose Cohort (FAS), subjects dosed in Cycle 3 (83), Cycle 2, Day 15
[14] = Low Dose Cohort (FAS), subjects dosed in Cycle 3 (83), Cycle 2, Day 28
[15] = Low Dose Cohort (FAS), subjects dosed in Cycle 3 (83), Cycle 3, Day 15
[16] = Low Dose Cohort (FAS), subjects dosed in Cycle 3 (83), Cycle 3, Day 28

C[C@@]1(O)CC[C@H]2[C@H](CC[C@@H]3[C@@H]2CC[C@]2(C)[C@@H](C(=O)Cn4cc(C#N)cn4)CC[C@@H]32)C1 [Compound (1), 1-(2-((3R,5R,8R,9R,10S,13S,14S,17S)-3-hydroxy-3,13-dimethylhexadecahydro-1H-cyclopenta[a]phenanthren-17-yl)-2-oxoethyl)-1H-pyrazole-4-carbonitrile]
Withdrawn in Treatment Cycle 1: Exit for non-response, n (%) (50 mg Cohort (n = 199)): 31 (15.6%)
Subjects achieving remission (HAM-D less than or equal to 7) (50 mg Cohort, Day 15 Treatment Cycle 1, Example 4, 80 subjects of 199): 40.2%
Subjects achieving response (at least 50% reduction in HAM-D from baseline) (50 mg Cohort, Day 15 Treatment Cycle 1, Example 4, about 149 subjects of 199): 74.9%
HAMD-17 remission rate [1]: 40.8%
HAMD-17 response rate [1]: 75.0%
Mean (SD) CFB in HAMD-17 (Day 15 of first treatment cycle, overall study population (30 mg and 50 mg Cohorts)): −15.4 (6.9)
Responders at D15 in C1 who did not discontinue in C1 (FAS), % of subjects dosed in C1 (Dose Switch Cohort (80 dosed)): 80 (100%)
HAM-D Total Score, Mean Change from Period-Specific Baseline [2]: −15.5
HAM-D Total Score, Mean Percent Change from Period-Specific Baseline [2]: −59.1
HAM-D Total Score, Mean Change from Period-Specific Baseline [3]: −15.8
HAM-D Total Score, Mean Percent Change from Period-Specific Baseline [3]: −60.0
HAM-D Total Score, Mean Change from Period-Specific Baseline [4]: −14.8
HAM-D Total Score, Mean Percent Change from Period-Specific Baseline [4]: −60.0
Responders at D15 in C1 who did not discontinue in C1 (FAS), % of subjects dosed in C1 (Low Dose Cohort (645 dosed)): 409 (63.4%)
HAM-D Non-responder rate at D15 (of subjects dosed in cycle) (Low Dose Cohort (FAS), C2 (N = 70 of 199)): (N = 70, 35.2%)
HAM-D Non-responder rate at D15 (of subjects dosed in cycle) (Low Dose Cohort (FAS), C3 (N = 33 of 83)): (N = 33, 39.8%)
HAM-D Non-responder rate at D15 (of subjects dosed in cycle) (Low Dose Cohort (FAS), C4 (N = 18 of 43)): (N = 18, 41.9%)
HAM-D Non-responder rate at D15 (of subjects dosed in cycle) (Low Dose Cohort (FAS), C5 (N = 7 of 20)): (N = 7, 35%)
Status in C2: Non-responder [5]: (57.6%)
Status in C2: Responder [5]: (42.4%)
Status in C2: Non-responder [6]: (55.6%)
Status in C2: Responder [6]: (44.4%)
Status in C3: Non-responder [6]: 9 (50.0%)
Status in C3: Responder [6]: (50.0%)
Status in C2: Non-responder [7]: (85.7%)
Status in C2: Responder [7]: (14.3%)
Status in C3: Non-responder [7]: 3 (42.9%)
Status in C3: Responder [7]: (57.1%)
Status in C4: Non-responder [7]: 5 (71.4%)
Status in C4: Responder [7]: 1 (14.4%)
HAM-D Total Score, Mean Change from Period-Specific Baseline [8]: −17.4
HAM-D Total Score, Mean Percent Change from Period-Specific Baseline [8]: −70.0
HAM-D Total Score, Mean Change from Period-Specific Baseline [9]: −13.8
HAM-D Total Score, Mean Percent Change from Period-Specific Baseline [9]: −55.2
HAM-D Total Score, Mean Change from Period-Specific Baseline [10]: −12.3
HAM-D Total Score, Mean Percent Change from Period-Specific Baseline [10]: −52.6
HAM-D Total Score, Mean Change from Period-Specific Baseline [11]: −11.5
HAM-D Total Score, Mean Percent Change from Period-Specific Baseline [11]: −49.1
HAM-D Total Score, Mean Change from Period-Specific Baseline [12]: −17.2
HAM-D Total Score, Mean Percent Change from Period-Specific Baseline [12]: −68.8
HAM-D Total Score, Mean Change from Period-Specific Baseline (Low Dose Cohort (FAS), subjects dosed in Cycle 3 (83), Cycle 1, Day 28): 83, −12.7, —
HAM-D Total Score, Mean Change from Period-Specific Baseline [13]: −12.7
HAM-D Total Score, Mean Percent Change from Period-Specific Baseline [13]: −52.9
HAM-D Total Score, Mean Change from Period-Specific Baseline [14]: −11.2
HAM-D Total Score, Mean Percent Change from Period-Specific Baseline [14]: −46.5
HAM-D Total Score, Mean Change from Period-Specific Baseline [15]: −12.5
HAM-D Total Score, Mean Percent Change from Period-Specific Baseline [15]: −52.4
HAM-D Total Score, Mean Change from Period-Specific Baseline [16]: −11.9
HAM-D Total Score, Mean Percent Change from Period-Specific Baseline [16]: −49.8
HAM-D Total Score, Mean Change from Period-Specific Baseline (Low Dose Cohort (FAS), subjects dosed in Cycle 4 (43), Cycle 1, Day 15): −17.0
